Series [1] has as its system stool microbiota. In words: Ex vivo stool slurry incubation, SCFA production by GC-FID. Details: species or system human. The protocol: (§1) Fresh stool samples were collected and weighed before being transferred to anaerobic conditions, in which they were diluted in reduced PBS containing 0.1% L-Cysteine to a ratio of 1 g/5 ml. Samples were homogenized into a slurry before being aliquoted into 96-well plates. Samples of the unaltered slurry were taken for a baseline sample, after which inulin, pectin, and cellulose were added from stock solutions to final slurry concentrations of 10 g/L, 5 g/L and 20 g/L, respectively. Concentrations of inulin and pectin were determined based on the maximum stock concentration we were able to obtain in which the dietary fiber was fully dissolved. Four conditions were measured: inulin, pectin, cellulose and control (no spike-in). The samples were incubated anaerobically at 37° C., and two biological replicates (two different wells in the 96-well plates) were collected at each time point. Samples were collected after 2 and 4 hours from all participants and sent out for SCFA quantification on a GC-FID. Linear production rate was measured between 2 h and 4 h because this allowed Applicants maximum accuracy in measuring the time interval without introducing artefacts due to delays between conditions introduced during setup. Results obtained from slurry in large flasks on a shaker were in good agreement with data obtained in a 96-well plate format.
Chromatographic analysis was carried out using an Agilent 7890B system with a flame ionization detector (FID) (Agilent Technologies, Santa Clara, Calif.). A high resolution gas chromatography capillary column 30 m×0.25 mm coated with 0.25 μm film thickness was used (DB-FFAP) for the volatile acids (Agilent Technologies) and a high resolution gas chromatography capillary column 30 m×0.25 mm coated with 0.50 μm film thickness was used (DB-FFAP) for the nonvolatile acids. Nitrogen was used as the carrier gas. […]
The samples were kept frozen at −80° C. until analysis. […] A sample of the raw fecal material was transferred to a 2 mL tube, the weight of the fecal material was determined and 1.5 mL of HPLC water was added to each sample. […]

The conditions of series [2]: dialysis bag constant; cited from earlier work.
For a further series, the system named is CaCo cell monolayers. The series is described as follows: Gut monolayer SCFA absorption measurements (Transwell, apical/basal sampling over 24 h). The note with it: CaCo monolayer-derived rate constant. In kind it is in vitro ADME. The protocol:
Applicants used a gut monolayer system without the immune component, the Gut monolayer was prepared as previously described by WLK Chen et al. (Chen et al., 2017b) Briefly Caco-2 or C2BBe1 along with HT29-MTX-E21 cells (Sigma) were seeded onto rat tail collagen I-(corning 354236) coated Transwell inserts (Corning 3460) in a 9:1 ratio (1×10^5 cells/cm2) in 500 μl seeding medium. The top and bottom compartments of the Transwell Plate were fed with 500 ul and 1.5 ml of seeding medium. The medium was changed every 2-3 days. After 20 days of gut insert maturation, the cell monolayer was ready to use.
Barrier integrity was quantified by TEER (TransEpithelial Electrical Resistance) using the EVOM2 and the Enfohm-12 (World Precision Instruments) at 37° C. Applicants measured cell monolayer integrity at the beginning and the end of the 24 h long experiment. […]
Gut luminal concentrations of microbially-derived SCFAs is a balance between net production in the lumen and absorption by the host epithelium. Unfortunately, quantitative understanding of the rate of absorption of a given SCFA by cells in the gut epithelia is limited. […] Applicants sought to estimate the order of magnitude of this rate constant, to better understand the fate of SCFAs produced by the microbiota in the colon (i.e. the balance between quantities absorbed versus quantities excreted). […]

The subject of series [3] is stool microbiota. The series is described as follows: Ex vivo stool slurry incubation, inulin depletion by inulin-specific ELISA. Details: species or system human. As for the experimental part: as §1
Applicants use BioPAL's inulin immunoassay kit (BioPAL Worcester Mass.) to measure inulin concentration in filtrate from stool samples and follow manufacture's protocol. […]
To measure SCFA production ex vivo in response to different dietary polysaccharides, stool from 40 healthy human participants was homogenized into a slurry in anaerobic conditions and spiked with inulin, pectin or cellulose (cf. Methods). The slurry was then allowed to evolve over time and samples obtained at regular intervals in order to quantify SCFA content at each timepoint (FIG. 1). In order to determine the appropriate sampling frequency, Applicants performed pilot experiments in which Applicants analysed the trajectory of each SCFA concentration over a 24 h period. […]
(In an ELISA, binding on a coated surface is turned into a signal by an enzyme label.)

As to cellulose, in the series with stool microbiota [1] (20 g/L cellulose, timepoints 2 h and 4 h), the “SCFA production rates versus control (no spike-in)” value is given as “indistinguishable from control”.

Consider pectin, for which the “butyrate concentration over 24 h” value with stool microbiota [1] (participant G) was “produces it from pectin as well”.

In the case of `CCCC(=O)[O-].[Na+]` [butyrate, Sodium Butyrate], the “absorption rate constant of butyrate” value is listed as 0.0019 mmol L-1h-1cm-2 in series [2] and 0.091 mmol L-1h-1cm-2 in the series with CaCo cell monolayers.

Regarding inulin, the “butyrate concentration over 24 h” value in the series with stool microbiota [1] (participant C) is recorded as “only produces butyrate from inulin”. Besides, the “inulin substrate in slurry after 4 h” value in the series on stool microbiota [3] (10 g/L inulin, 4 h) is given as “a significant fraction of inulin substrate remained”. In addition, in the series on stool microbiota [3] (10 g/L inulin, 24 h, five of the six participants tested), the “inulin substrate in slurry by 24 h” value is recorded as “almost entirely consumed”. In the series on stool microbiota [3] (input concentration 10 g/L, most participants), the “time for the majority of inulin to be fermented by the microbiota ex vivo” value lay in the range of 12 to 24 h.
